From ChEMBL document CHEMBL1201862, “PubChem BioAssay data set” (2004)
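Each compound was tested at five concentrations against cells in 96-well plates for 48 hours. GI50 = concentration required for 50% inhibition of growth.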 Active and inactive are the calls of the source. Cut-off read from the data, not from the text of the source: active = GI50 up to about 1.1 µM and inactive = higher.

Experiments:
Assay in all cases: growth of human tumour cells (NCI), 48 h
[1] = test system: RPMI-8226
[2] = test system: SN12C
[3] = test system: UACC-257
[4] = test system: HL-60
[5] = test system: SF-295
[6] = test system: BT-549
[7] = test system: EKVX
[8] = test system: SF-268
[9] = test system: T47D
[10] = test system: OVCAR-5
[11] = test system: MDA-MB-231
[12] = test system: RXF 393
[13] = test system: MDA-N
[14] = test system: OVCAR-4
[15] = test system: Hs-578T
[16] = test system: HOP-62
[17] = test system: M14
[18] = test system: HOP-92

Measured: GI50

N#Cc1c(NC(=S)Nc2ccc(Cl)cc2)sc2c1CCCC2
inactive: [1] 24.2 µM | [2] 3.37 µM | [3] > 100 µM | [4] 34.8 µM | [5] > 100 µM | [6] > 100 µM | [7] 3.83 µM | [8] > 100 µM | [9] > 100 µM | [10] > 100 µM | [11] 3.54 µM | [12] > 100 µM | [13] > 100 µM | [14] 5.16 µM

COc1ccc(C(O)(c2ccccc2)c2nccc3ccccc23)cc1 (stereo not given)
inactive: [1] 7.36 µM | [2] 22.1 µM | [3] 7.74 µM | [15] 4.71 µM | [4] 2.32 µM | [5] 6.76 µM | [6] 8.41 µM | [16] 5.28 µM | [7] 11.9 µM | [8] 12.4 µM | [9] 36.8 µM | [10] 11.5 µM | [11] 7.31 µM | [12] 3.19 µM | [13] 3.2 µM | [17] 2.76 µM | [14] 11 µM

Cc1nc2ccc(NC3OCC(O)C(O)C3O)cc2c(=O)n1-c1ccccc1 (stereo not given)
inactive: [1] > 100 µM | [2] > 100 µM | [3] > 100 µM | [15] > 100 µM | [4] 49.7 µM | [5] > 100 µM | [6] > 100 µM | [16] > 100 µM | [7] > 100 µM | [8] > 100 µM | [9] > 100 µM | [10] > 100 µM | [11] > 100 µM | [12] > 100 µM | [13] > 100 µM | [14] > 100 µM

NC(=O)Nc1ccc(C(=O)NCCCNC(=O)c2ccc(NC(N)=O)cc2)cc1
inactive: [1] > 100 µM | [3] > 100 µM | [15] > 100 µM | [4] > 100 µM | [6] > 100 µM | [16] > 100 µM | [7] > 100 µM | [18] > 100 µM | [8] > 100 µM | [9] > 100 µM | [10] > 100 µM | [12] > 100 µM | [13] > 100 µM | [17] > 100 µM | [14] > 100 µM

CCOC(=O)C1(C(=O)OCC)CSC1
inactive: [2] > 100 µM | [3] > 100 µM | [15] > 100 µM | [5] > 100 µM | [18] > 100 µM | [8] > 100 µM | [9] > 100 µM | [11] > 100 µM | [12] > 100 µM | [13] > 100 µM | [17] > 100 µM | [14] > 100 µM

OCC(CO)CC1COc2ccccc2O1 (stereo not given)
inactive: [1] > 10 µM | [2] > 10 µM | [15] > 10 µM | [4] > 10 µM | [5] > 10 µM | [16] > 10 µM | [7] > 10 µM | [8] > 10 µM | [9] > 10 µM | [10] > 10 µM | [11] > 10 µM | [12] > 10 µM | [13] > 10 µM | [17] > 10 µM | [14] > 10 µM

CCOC(=O)N1CCN(C(=O)Nc2cccc3ccccc23)CC1
inactive: [1] > 10 µM | [2] > 10 µM | [15] > 10 µM | [4] > 10 µM | [5] > 10 µM | [16] > 10 µM | [7] > 10 µM | [8] > 10 µM | [9] > 10 µM | [10] > 10 µM | [11] > 10 µM | [12] > 10 µM | [13] > 10 µM | [17] > 10 µM | [14] > 10 µM

CC(C)C1OC(=O)/C=C/C=C/C=C/C=C/C=C/CC(O)C(C)C(O)CC(O)CC(O)CC(O)CC(O)CC(O)CC(O)/C=C/C1C (stereo not given)
inactive: [1] > 100 µM | [3] > 100 µM | [15] > 100 µM | [4] > 100 µM | [5] > 100 µM | [16] > 100 µM | [7] > 100 µM | [18] > 100 µM | [8] > 100 µM | [10] > 100 µM | [17] > 100 µM | [14] > 100 µM

CCCNC1=NC(C)=CSC(Nc2ccccc2)=C1C#N
inactive: [1] > 100 µM | [2] > 100 µM | [5] > 100 µM | [16] > 100 µM | [8] > 100 µM | [9] > 100 µM | [10] > 100 µM | [11] > 100 µM | [12] > 100 µM | [13] > 100 µM | [17] > 100 µM | [14] > 100 µM

C=CCN1C(=O)/C(=C/c2cccs2)N=C1SC1OC(COC(=O)c2ccccc2)C(OC(=O)c2ccccc2)C1OC(=O)c1ccccc1 (stereo not given)
inactive: [1] 22.4 µM | [3] > 100 µM | [4] > 100 µM | [5] > 100 µM | [6] > 100 µM | [16] > 100 µM | [7] > 100 µM | [18] > 100 µM | [10] > 100 µM | [11] > 100 µM | [12] > 100 µM | [14] > 100 µM
